Laboratory results as given in ChEMBL document CHEMBL1138879 (J Med Chem, 2006).

Tests used:
in vivo [1] = details: dog, iv, 5 mg/kg
in vivo [2] = details: mouse, plasma, po, 1 mg/kg
hERG (KCNH2) = hERG (KCNH2) (Homo sapiens, UniProt Q12809); assay: in vitro
PBMC = assay: cells; details: Homo sapiens
in vivo [3] = details: dog, iv, 5 mg/kg; remark: listed apart in the source
in vivo [4] = details: dog, po, 10 mg/kg
in vivo [5] = details: mouse, iv, 1 mg/kg
in vivo [6] = details: mouse, po, 1 mg/kg
in vivo [7] = details: dog, plasma, po, 10 mg/kg
in vivo [8] = details: dog, iv, 5 mg/kg; remark: listed apart in the source
in vivo [9] = details: dog, po, 10 mg/kg; remark: listed apart in the source
in vivo [10] = details: mouse, iv, 1 mg/kg; remark: listed apart in the source
in vivo [11] = details: mouse, iv, 1 mg/kg; remark: listed apart in the source
in vivo [12] = details: mouse, po, 1 mg/kg; remark: listed apart in the source
in vivo [13] = details: dog, iv, 5 mg/kg; remark: listed apart in the source
in vivo [14] = details: dog, po, 10 mg/kg; remark: listed apart in the source
in vivo [15] = details: mouse, po, 1 mg/kg; remark: listed apart in the source
in vivo [16] = details: mouse, iv, 1 mg/kg; remark: listed apart in the source

hERG (KCNH2), sequence (Q12809 whole entry): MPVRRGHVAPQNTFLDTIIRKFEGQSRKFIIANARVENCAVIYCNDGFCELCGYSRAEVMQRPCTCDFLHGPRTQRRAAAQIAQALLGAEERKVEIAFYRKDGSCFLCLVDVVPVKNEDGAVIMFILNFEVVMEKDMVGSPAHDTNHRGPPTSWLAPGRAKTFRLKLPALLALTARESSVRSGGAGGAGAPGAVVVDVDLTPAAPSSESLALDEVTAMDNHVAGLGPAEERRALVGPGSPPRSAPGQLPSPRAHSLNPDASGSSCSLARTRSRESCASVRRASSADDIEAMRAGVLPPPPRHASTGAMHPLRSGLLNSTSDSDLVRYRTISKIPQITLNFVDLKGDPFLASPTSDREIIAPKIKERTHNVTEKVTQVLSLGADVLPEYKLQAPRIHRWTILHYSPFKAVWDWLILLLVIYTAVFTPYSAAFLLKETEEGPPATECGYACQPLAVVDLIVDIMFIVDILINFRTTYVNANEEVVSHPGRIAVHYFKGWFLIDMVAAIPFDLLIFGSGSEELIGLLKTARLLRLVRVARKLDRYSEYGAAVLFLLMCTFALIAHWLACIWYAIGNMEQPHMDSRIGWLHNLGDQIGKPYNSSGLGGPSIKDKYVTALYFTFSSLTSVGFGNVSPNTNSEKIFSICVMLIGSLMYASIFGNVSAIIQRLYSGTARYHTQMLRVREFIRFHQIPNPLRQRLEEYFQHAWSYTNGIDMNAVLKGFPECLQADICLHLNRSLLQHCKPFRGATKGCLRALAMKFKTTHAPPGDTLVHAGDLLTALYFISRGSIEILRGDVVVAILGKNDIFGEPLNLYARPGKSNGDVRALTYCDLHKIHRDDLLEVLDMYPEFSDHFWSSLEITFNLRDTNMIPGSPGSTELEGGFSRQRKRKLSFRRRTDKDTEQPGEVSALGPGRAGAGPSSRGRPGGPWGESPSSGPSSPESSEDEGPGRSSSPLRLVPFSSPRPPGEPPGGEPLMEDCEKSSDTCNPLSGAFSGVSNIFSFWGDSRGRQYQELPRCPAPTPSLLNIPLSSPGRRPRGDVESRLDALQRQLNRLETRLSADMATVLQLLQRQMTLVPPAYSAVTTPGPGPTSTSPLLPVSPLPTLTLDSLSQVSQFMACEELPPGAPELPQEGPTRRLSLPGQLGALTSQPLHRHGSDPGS

- Vd (in vivo [1]): 0.7 L/kg
- AUC (in vivo [2]): 0.306 µM·h
- MRT (in vivo [3]): 3.3 h
- Cmax (in vivo [4]): 18.9 µM
- MRT (in vivo [5]): 4.4 h
- bioavailability (in vivo [6]): 41%
- AUC (in vivo [7]): 115 µM·h
- clearance (in vivo [8]): 0.216 L/h/kg
- Tmax (in vivo [9]): 2 h
- clearance (in vivo [10]): 1.92 L/h/kg
- half-life (in vivo [11]): 5.4 h
- Cmax (in vivo [12]): 0.083 µM
- half-life (in vivo [13]): 3.5 h
- bioavailability (in vivo [14]): 100%
- Tmax (in vivo [15]): 0.25 h
- Vd (in vivo [16]): 8.5 L/kg
Compound: CN1C(=O)N(c2cc(Cl)cc(Cl)c2)C(=O)[C@]12CN(Cc1cc(C(=O)O)cs1)C[C@H]2c1ccc(C#N)cc1
- inhibition at 30 µM (hERG (KCNH2)): 24%
- IC50 (PBMC): 0.28 µM
